Test results: patent US6274715A, “Tricyclic erythromycin derivatives” (priority 1997, dated 2001)
≈ marks a conversion by molar mass, not a printed value.

Legend:
Format in all cases: cell-based
[1] = test system: STAPHYLOCOCCUS AUREUS ATCC 6538P; experiment: In vitro antibacterial activity, MIC, BHI agar dilution; details: S. aureus ATCC 6538P, 35-37° C., 20 to 24 hours, unit assumed
[2] = test system: STAPHYLOCOCCUS AUREUS A5177; experiment: as above; details: S. aureus A5177, unit assumed
[3] = test system: STAPHYLOCOCCUS AUREUS A-5278; experiment: as above; details: S. aureus A-5278, unit assumed
[4] = test system: STAPHYLOCOCCUS AUREUS CMX 642A; experiment: as above; details: S. aureus CMX 642A, unit assumed
[5] = test system: STAPHYLOCOCCUS AUREUS NCTC10649M; experiment: as above; details: S. aureus NCTC10649M, unit assumed
[6] = test system: STAPHYLOCOCCUS AUREUS CMX 553; experiment: as above; details: S. aureus CMX 553, unit assumed
[7] = test system: STAPHYLOCOCCUS AUREUS 1775; experiment: as above; details: S. aureus 1775, unit assumed
[8] = test system: STAPHYLOCOCCUS EPIDERMIDIS 3519; details: S. epidermidis 3519; BHI agar; unit assumed
[9] = test system: EN[…] ATCC 8043; experiment: In vitro antibacterial activity, MIC, BHI agar dilution; details: E. faecium ATCC 8043, unit assumed
Method in brief: (§1)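 MIC was read visually as the lowest drug concentration showing no growth, a slight haze or sparsely isolated colonies relative to a compound-free BHI plate. Plates held serial aqueous dilutions in BHI agar, were spot-inoculated with 1:100 (or 1:10) culture dilutions and incubated 20 to 24 hours at 35-37° C.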

[10] = test system: M[…] ATCC 4698; experiment: as above; details: M. luteus ATCC 4698, unit assumed
Method in brief: as §1

[11] = test system: M[…] ATCC 9341; experiment: as above; details: M. luteus ATCC 9341, unit assumed
Method in brief: as §1

[12] = test system: STR[…] 508; experiment: as above; details: S. agalactiae CMX 508, unit assumed
Method in brief: as §1

[13] = test system: STREPTOCOCCUS BOVIS A-5169; experiment: as above; details: S. bovis A-5169, unit assumed
[14] = test system: STREPTOCOCCUS PYOGENES EES61; experiment: as above; details: S. pyogenes EES61, unit assumed
[15] = test system: STREPTOCOCCUS PYOGENES 930; experiment: as above; details: S. pyogenes 930, unit assumed
[16] = test system: STREPTOCOCCUS PYOGENES PIU 2548; experiment: as above; details: S. pyogenes PIU 2548, unit assumed
[17] = test system: ESCHERICHIA COLI JUHL; details: E. coli JUHL; BHI agar; unit assumed
[18] = test system: ESCHERICHIA COLI SS; experiment: In vitro antibacterial activity, MIC, BHI agar dilution; details: E. coli SS, unit assumed
[19] = test system: ESCHERICHIA COLI DC-2; experiment: as above; details: E. coli DC-2, unit assumed
[20] = test system: ESCHERICHIA COLI H560; experiment: as above; details: E. coli H560, unit assumed
[21] = test system: ESCHERICHIA COLI KNK 437; details: E. coli KNK 437; BHI agar; unit assumed
[22] = test system: ENTEROBACTER AEROGENES ATCC 13048; experiment: In vitro antibacterial activity, MIC, BHI agar dilution; details: E. aerogenes ATCC 13048, unit assumed
[23] = test system: KLEBSIELLA PNEUMONIAE ATCC 8045; experiment: as above; details: K. pneumoniae ATCC 8045, unit assumed
[24] = test system: PROVIDENCIA STUARTII CMX 640; details: P. stuartii CMX 640; BHI agar; unit assumed
[25] = test system: PSEUDOMONAS AERUGINOSA BMH10; experiment: In vitro antibacterial activity, MIC, BHI agar dilution; details: P. aeruginosa BMH10, unit assumed
[26] = test system: PSEUDOMONAS AERUGINOSA 5007; experiment: as above; details: P. aeruginosa 5007, unit assumed
[27] = test system: PSEUDOMONAS AERUGINOSA K799/WT; experiment: as above; details: P. aeruginosa K799/WT, unit assumed
[28] = test system: PSEUDOMONAS AERUGINOSA K799/61; experiment: as above; details: P. aeruginosa K799/61, unit assumed
[29] = test system: PSEUDOMONAS CEPACIA 296I; experiment: as above; details: P. cepacia 296I, unit assumed
[30] = test system: PSEUDOMONAS AERUGINOSA DPHD-5263; experiment: as above; details: P. aeruginosa DPHD-5263, unit assumed
[31] = test system: PSEUDOMONAS AERUGINOSA DPHD-2862; experiment: as above; details: P. aeruginosa DPHD-2862, unit assumed
[32] = test system: CANDIDA ALBICANS CCH 442; experiment: as above; details: C. albicans CCH 442, unit assumed
[33] = test system: MYCOBACTERIUM SMEGMATIS ATCC 114; experiment: as above; details: M. smegmatis ATCC 114, unit assumed
[34] = test system: H. Influenza Dill AMP R; experiment: In vitro antibacterial activity against H. Influenza Dill AMP R, MIC; details: separate assay, unit assumed
Method: Representative compounds of the present invention were assayed in vitro for antibacterial activity as follows: Twelve petri dishes containing successive aqueous dilutions of the test compound mixed with 10 mL of sterilized Brain Heart Infusion (BHI) agar (Difco 0418-01-5) were prepared. Each plate was inoculated with 1:100 (or 1:10 for slow-growing strains, such as Micrococcus and Streptococcus) dilutions of up to 32 different microorganisms, using a Steers replicator block. The inoculated plates were incubated at 35-37° C. for 20 to 24 hours. In addition, a control plate, using BHI agar containing no test compound, was prepared and incubated at the beginning and end of each test.
After incubation, each plate was visually inspected. The minimum inhibitory concentration (MIC) was defmed as the lowest concentration of drug yielding no growth, a slight haze, or sparsely isolated colonies on the inoculum spot as compared to the growth control.
In a separate assay representative compounds of the invention were assayed in vitro for antibacterial activity against the H. Influenza Dill AMP R strain, according to the protocol described above.

| Compound | MIC [1] | MIC [2] | MIC [3] | MIC [4] | MIC [5] | MIC [6] | MIC [7] | MIC [8] | MIC [9] | MIC [10] | MIC [11] | MIC [12] | MIC [13] | MIC [14] | MIC [15] | MIC [16] | MIC [17] | MIC [18] | MIC [19] | MIC [20] | further results |
| --- | --- | --- | --- | --- | --- | --- | --- | --- | --- | --- | --- | --- | --- | --- | --- | --- | --- | --- | --- | --- | --- |
| CC[C@H]1OC(=O)[C@H](C)C(=O)[C@H](C)[C@@H](O[C@@H]2O[C@H](C)C[C@H](N(C)C)[C@H]2O)[C@](C)(OC)C[C@@H](C)C2=NC3CN(CCc4cccc([N+](=O)[O-])c4)CC3N3C(=O)O[C@@]1(C)[C@H]3[C@H]2C (stereo partly drawn) [Example 120] | 0.2 µg/mL (≈ 0.242 µM) | 0.2 µg/mL (≈ 0.242 µM) | > 100 µg/mL | 0.2 µg/mL (≈ 0.242 µM) | 0.2 µg/mL (≈ 0.242 µM) | 0.2 µg/mL (≈ 0.242 µM) | > 100 µg/mL | 0.39 µg/mL (≈ 0.471 µM) | 0.05 µg/mL (≈ 0.0604 µM) | 0.2 µg/mL (≈ 0.242 µM) | 0.02 µg/mL (≈ 0.0242 µM) | 0.01 µg/mL (≈ 0.0121 µM) | 0.01 µg/mL (≈ 0.0121 µM) | 0.01 µg/mL (≈ 0.0121 µM) | > 100 µg/mL | 0.39 µg/mL (≈ 0.471 µM) | 50 µg/mL (≈ 60.4 µM) | 0.39 µg/mL (≈ 0.471 µM) | 50 µg/mL (≈ 60.4 µM) | 50 µg/mL (≈ 60.4 µM) | MIC [21]: > 100 µg/mL; MIC [22]: > 100 µg/mL; MIC [23]: > 100 µg/mL; MIC [24]: > 100 µg/mL; MIC [25]: > 100 µg/mL; MIC [26]: > 100 µg/mL; MIC [27]: > 100 µg/mL; MIC [28]: 0.78 µg/mL (≈ 0.942 µM); MIC [29]: 100 µg/mL (≈ 121 µM); MIC [30]: > 100 µg/mL; MIC [31]: > 100 µg/mL; MIC [32]: > 100 µg/mL; MIC [33]: 0.78 µg/mL (≈ 0.942 µM); MIC [34]: 4 µg/mL (≈ 4.83 µM) |
| CC[C@H]1OC(=O)[C@H](C)C(=O)[C@H](C)[C@@H](O[C@@H]2O[C@H](C)C[C@H](N(C)C)[C@H]2O)[C@](C)(OC)C[C@@H](C)C2=NC3CN(CCN(C)C)CC3N3C(=O)O[C@@]1(C)[C@H]3[C@H]2C (stereo partly drawn) [Example 129] | 1.56 µg/mL (≈ 2.08 µM) | 1.56 µg/mL (≈ 2.08 µM) | > 100 µg/mL | 1.56 µg/mL (≈ 2.08 µM) | 1.56 µg/mL (≈ 2.08 µM) | 1.56 µg/mL (≈ 2.08 µM) | > 100 µg/mL | 1.56 µg/mL (≈ 2.08 µM) | 0.39 µg/mL (≈ 0.52 µM) | 1.56 µg/mL (≈ 2.08 µM) | 0.2 µg/mL (≈ 0.267 µM) | 0.05 µg/mL (≈ 0.0667 µM) | 0.05 µg/mL (≈ 0.0667 µM) | 0.02 µg/mL (≈ 0.0267 µM) | > 100 µg/mL | 3.1 µg/mL (≈ 4.13 µM) | 100 µg/mL (≈ 133 µM) | 0.78 µg/mL (≈ 1.04 µM) | 50 µg/mL (≈ 66.7 µM) | 50 µg/mL (≈ 66.7 µM) | MIC [21]: > 100 µg/mL; MIC [22]: 100 µg/mL (≈ 133 µM); MIC [23]: 100 µg/mL (≈ 133 µM); MIC [24]: > 100 µg/mL; MIC [25]: > 100 µg/mL; MIC [26]: > 100 µg/mL; MIC [27]: > 100 µg/mL; MIC [28]: 1.56 µg/mL (≈ 2.08 µM); MIC [29]: > 100 µg/mL; MIC [30]: > 100 µg/mL; MIC [31]: > 100 µg/mL; MIC [32]: > 100 µg/mL; MIC [33]: 50 µg/mL (≈ 66.7 µM); MIC [34]: 64 µg/mL (≈ 85.3 µM) |
| CC[C@H]1OC(=O)[C@H](C)C(=O)[C@H](C)[C@@H](O[C@@H]2O[C@H](C)C[C@H](N(C)C)[C@H]2O)[C@](C)(OC)C[C@@H](C)C2=NCC(COC(=O)c3ccccc3)N3C(=O)O[C@@]1(C)[C@H]3[C@H]2C (stereo partly drawn) [Example 139] | 0.1 µg/mL (≈ 0.13 µM) | 0.1 µg/mL (≈ 0.13 µM) | > 100 µg/mL | 0.1 µg/mL (≈ 0.13 µM) | 0.1 µg/mL (≈ 0.13 µM) | 0.1 µg/mL (≈ 0.13 µM) | > 100 µg/mL | 0.1 µg/mL (≈ 0.13 µM) | 0.02 µg/mL (≈ 0.0259 µM) | 0.2 µg/mL (≈ 0.259 µM) | 0.05 µg/mL (≈ 0.0648 µM) | 0.02 µg/mL (≈ 0.0259 µM) | ≤ 0.005 µg/mL | 0.01 µg/mL (≈ 0.013 µM) | 25 µg/mL (≈ 32.4 µM) | 0.39 µg/mL (≈ 0.505 µM) | 25 µg/mL (≈ 32.4 µM) | 0.39 µg/mL (≈ 0.505 µM) | 25 µg/mL (≈ 32.4 µM) | 25 µg/mL (≈ 32.4 µM) | MIC [21]: 50 µg/mL (≈ 64.8 µM); MIC [22]: 100 µg/mL (≈ 130 µM); MIC [23]: 100 µg/mL (≈ 130 µM); MIC [24]: > 100 µg/mL; MIC [25]: > 100 µg/mL; MIC [26]: > 100 µg/mL; MIC [27]: 100 µg/mL (≈ 130 µM); MIC [28]: 0.39 µg/mL (≈ 0.505 µM); MIC [29]: 25 µg/mL (≈ 32.4 µM); MIC [30]: > 100 µg/mL; MIC [31]: 100 µg/mL (≈ 130 µM); MIC [32]: > 100 µg/mL; MIC [33]: 0.78 µg/mL (≈ 1.01 µM); MIC [34]: 2 µg/mL (≈ 2.59 µM) |
